Results: BindingDB's records for doi:10.1021/jm034206x (Boehringer Ingelheim (Canada), 2003)

What follows are compounds tested against Replication protein E1 (Human papillomavirus type 6) (assay: Ability to inhibit in vitro ATPase activity of human papillomavirus (HPV6) E1 helicase).

IC50	Structure (SMILES)
5400 nM	O=C(O)CS(=O)(=O)c1ccc(-c2cccc3ccccc23)cc1 [(4-Naphthalen-1-yl-benzenesulfonyl)-acetic acid]
67000 nM	O=C(O)CS(=O)(=O)c1ccc(NCCc2ccccc2)cc1 [(4-Phenethylamino-benzenesulfonyl)-acetic acid]
> 80000 nM	O=C(O)CS(=O)(=O)c1ccc(Sc2ccccc2)cc1 [(4-Phenylsulfanyl-benzenesulfonyl)-acetic acid]
20000 nM	O=C(O)CS(=O)(=O)c1ccc(-c2nccs2)cc1 [(4-Thiazol-2-yl-benzenesulfonyl)-acetic acid]
> 80000 nM	O=C(O)CS(=O)(=O)c1cccc(-c2ccccc2)c1 [(Biphenyl-3-sulfonyl)-acetic acid]
> 80000 nM	O=C(O)CSc1ccc(-c2ccccc2)cc1 [(Biphenyl-4-sulfanyl)-acetic acid]
6500 nM	O=C(O)C(F)S(=O)(=O)c1ccc(-c2ccccc2)cc1 (centres undefined) [(Biphenyl-4-sulfonyl)-fluoro-acetic acid]
32000 nM	O=S(=O)(O)CS(=O)(=O)c1ccc(-c2ccccc2)cc1 [(Biphenyl-4-sulfonyl)-methanesulfonic acid]
40000 nM	O=C(O)CS(=O)(=O)c1ccc2ccccc2c1 [(Naphthalene-2-sulfonyl)-acetic acid]
1700 nM	C[C@H](NC(=O)c1cccc(-c2ccc(S(=O)(=O)CC(=O)O)cc2)c1)c1ccccc1 [[3'-(1-(S)-phenyl-ethylcarbamoyl)-biphenyl-4-sulfonyl]-acetic acid]
9.2 nM	Cc1cccc(CNC(=O)c2cccc(-c3ccc(S(=O)(=O)CC(=O)O)cc3)c2)c1C [[3'-(2,3-dimethyl-benzylcarbamoyl)-biphenyl-4-sulfonyl]-acetic acid]
32 nM	Cc1ccccc1CNC(=O)c1cccc(-c2ccc(S(=O)(=O)CC(=O)O)cc2)c1 [[3'-(2-methyl-benzylcarbamoyl)-biphenyl-4-sulfonyl]-acetic acid]
27 nM	Cc1cccc(CNC(=O)c2cccc(-c3ccc(S(=O)(=O)CC(=O)O)cc3)c2)c1 [[3'-(3-methyl-benzylcarbamoyl)-biphenyl-4-sulfonyl]-acetic acid]
43 nM	C[C@@H](NC(=O)c1cccc(-c2ccc(S(=O)(=O)CC(=O)O)cc2)c1)c1ccccc1 [[3'-((R)-1-Phenyl-ethylcarbamoyl)-biphenyl-4-sulfonyl]-acetic acid]
20 nM	O=C(O)CS(=O)(=O)c1ccc(-c2cccc(CC(=O)N[C@H]3CCc4ccccc43)c2)cc1 [[3'-((S)-Indan-1-ylcarbamoylmethyl)-biphenyl-4-sulfonyl]-acetic acid]
300 nM	O=C(O)CS(=O)(=O)c1ccc(-c2cccc(CC(=O)NCc3ccccc3)c2)cc1 [[3'-(Benzylcarbamoyl-methyl)-biphenyl-4-sulfonyl]-acetic acid]
22000 nM	O=C(O)CS(=O)(=O)c1ccc(-c2cccc(C(=O)N3CCOCC3)c2)cc1 [[3'-(Morpholine-4-carbonyl)-biphenyl-4-sulfonyl]-acetic acid]
4800 nM	CN(C(=O)c1ccc(-c2ccc(S(=O)(=O)CC(=O)O)cc2)cc1)c1ccccc1 [[4'-(Methyl-phenyl-carbamoyl)-biphenyl-4-sulfonyl]-acetic acid]
3300 nM	O=C(O)CS(=O)(=O)c1ccc(-c2ccc(C(=O)N3CCCCC3)cc2)cc1 [[4'-(Piperidine-1-carbonyl)-biphenyl-4-sulfonyl]-acetic acid]
30000 nM	Cc1nc(-c2ccc(S(=O)(=O)CC(=O)O)cc2)cs1 [[4-(2-Methyl-thiazol-4-yl)-benzenesulfonyl]-acetic acid]
110 nM	O=C(O)CS(=O)(=O)c1ccc(-c2cccc(CC(=O)Nc3ccccc3)c2)cc1 [{3'-[(phenylcarbamoyl)-methyl]-biphenyl-4-sulfonyl}-acetic acid]
1900 nM	CC(=O)NCCNC(=O)Cc1ccc(-c2ccc(S(=O)(=O)CC(=O)O)cc2)cc1 [{4'-[(2-Acetylamino-ethylcarbamoyl)-methyl]-biphenyl-4-sulfonyl}-acetic acid]

Further lines, the compound ahead of its results:

Structure (SMILES)	IC50
CC(C)(C(=O)O)S(=O)(=O)c1ccc(-c2ccccc2)cc1 [2-(Biphenyl-4-sulfonyl)-2-methyl-propionic acid]	> 80000 nM
NC(=O)CS(=O)(=O)c1ccc(-c2ccccc2)cc1 [2-(Biphenyl-4-sulfonyl)-acetamide]	> 80000 nM
CC(C(=O)O)S(=O)(=O)c1ccc(-c2ccccc2)cc1 (centres undefined) [2-(Biphenyl-4-sulfonyl)-propionic acid]	17000 nM
CS(=O)(=O)c1ccc(-c2cccc(C(=O)NCc3cccc4ccccc34)c2)cc1 [4'-Methanesulfonyl-biphenyl-3-carboxylic acid (naphthalen-1-ylmethyl)-amide]	> 80000 nM
CS(=O)(=O)c1ccc(-c2ccccc2)cc1 [4-Methanesulfonyl-biphenyl]	> 80000 nM
O=C(NCc1cccc2ccccc12)c1cccc(-c2ccc(C(=O)C(F)(F)P(=O)(O)O)cc2)c1 [(1,1-Difluoro-2-{3'-[(naphthalen-1-ylmethyl)-carbamoyl]-biphenyl-4-yl}-2-oxo-ethyl)-phosphonic acid]	740 nM
COc1cccc(-c2ccc(S(=O)(=O)CC(=O)O)cc2)c1 [(3'-Methoxy-biphenyl-4-sulfonyl)-acetic acid]	4000 nM
O=C(O)CS(=O)(=O)c1ccc(-c2cccc(C(=O)Nc3ccccc3)c2)cc1 [(3'-Phenylcarbamoyl-biphenyl-4-sulfonyl)-acetic acid]	420 nM
O=C(O)CS(=O)(=O)c1cccc(COc2ccccc2)c1 [(3-Phenoxymethyl-benzenesulfonyl)-acetic acid]	> 80000 nM
O=C(O)CS(=O)(=O)c1ccc(-c2ccc(C(=O)NCc3ccccc3)cc2)cc1 [(4'-Benzylcarbamoyl-biphenyl-4-sulfonyl)-acetic acid]	510 nM
O=C(O)CS(=O)(=O)c1ccc(-c2ccc(CC(=O)NCc3ccccc3)cc2)cc1 [(4'-Benzylcarbamoylmethyl-biphenyl-4-sulfonyl)-acetic acid]	340 nM
O=C(O)CS(=O)(=O)c1ccc(-c2ccc(C(=O)N(Cc3ccccc3)Cc3ccccc3)cc2)cc1 [(4'-Dibenzylcarbamoyl-biphenyl-4-sulfonyl)-acetic acid]	1100 nM
COc1ccc(-c2ccc(S(=O)(=O)CC(=O)O)cc2)cc1 [(4'-Methoxy-biphenyl-4-sulfonyl)-acetic acid]	1300 nM
O=C(O)CS(=O)(=O)c1ccc(-c2ccc(C(=O)Nc3ccccc3)cc2)cc1 [(4'-Phenylcarbamoyl-biphenyl-4-sulfonyl)-acetic acid]	1300 nM
O=C(O)CS(=O)(=O)c1ccc(-c2ccc(CC(=O)Nc3ccccc3)cc2)cc1 [(4'-Phenylcarbamoylmethyl-biphenyl-4-sulfonyl)-acetic acid]	160 nM
O=C(O)CS(=O)(=O)c1ccc(-c2ccc3c(c2)OCO3)cc1 [(4-Benzo[1,3]dioxol-5-yl-benzenesulfonyl)-acetic acid]	1300 nM

Each compound was assayed against T1, Replication protein E1 (Human papillomavirus 11, UniProt P04014) (assay: ChEBML_84985).
T1 sequence (P04014 whole entry): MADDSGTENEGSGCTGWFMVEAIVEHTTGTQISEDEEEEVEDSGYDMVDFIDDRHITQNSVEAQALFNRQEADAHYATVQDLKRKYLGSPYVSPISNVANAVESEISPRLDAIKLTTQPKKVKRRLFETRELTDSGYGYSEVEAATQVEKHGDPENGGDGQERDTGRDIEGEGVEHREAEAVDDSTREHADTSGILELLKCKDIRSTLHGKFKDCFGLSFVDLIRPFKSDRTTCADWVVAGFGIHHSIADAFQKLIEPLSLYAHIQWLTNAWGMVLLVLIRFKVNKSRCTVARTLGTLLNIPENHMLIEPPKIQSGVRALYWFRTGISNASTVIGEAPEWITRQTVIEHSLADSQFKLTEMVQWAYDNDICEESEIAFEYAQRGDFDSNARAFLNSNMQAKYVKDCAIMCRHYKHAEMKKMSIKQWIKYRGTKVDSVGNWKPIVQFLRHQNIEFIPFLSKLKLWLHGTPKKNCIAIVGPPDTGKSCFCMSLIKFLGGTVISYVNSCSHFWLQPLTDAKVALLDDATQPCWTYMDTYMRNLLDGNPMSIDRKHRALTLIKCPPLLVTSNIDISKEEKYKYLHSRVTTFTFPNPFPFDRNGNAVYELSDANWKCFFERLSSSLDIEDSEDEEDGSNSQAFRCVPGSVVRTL
Source text: Ability to inhibit in vitro ATPase activity of human papillomavirus (HPV6) E1 helicase

IC50	Structure (SMILES)
4.3 nM	O=C(O)CS(=O)(=O)c1ccc(-c2cccc(C(=O)NCc3cccc4ccccc34)c2)cc1 [{3'-[(Naphthalen-1-ylmethyl)-carbamoyl]-biphenyl-4-sulfonyl}-acetic acid]
